Experimental data: the supplement of paper PMC10307832

Assays:
Assay in all cases: relative viability (nuclei count vs DMSO), 5 days (fraction); higher = more cells survive
[1] = compound: CN1C=C(C2=CC=CC=C21)/C=C\3/C4=C(C=CC=N4)NC3=O + CC1(C)CCC(c2ccc(Cl)cc2)=C(CN2CCN(c3ccc(C(=O)NS(=O)(=O)c4ccc(N[C@H](CCN5CCOCC5)CSc5ccccc5)c(S(=O)(=O)C(F)(F)F)c4)cc3)CC2)C1 [Navitoclax] (partner 0.5 µM)
Summary of the method: (§1)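 Relative viability divides the nuclei count in treated wells by that in vehicle wells. Lung cancer cell lines were seeded in 1536-well plates, dosed by pin tool the next day, and fixed and stained after 5 days in one step with final 0.05% Triton X-100, 1% formaldehyde and 1 ug/ml Hoechst. Dosing was a single drug or a fixed anchor-drug dose plus five library-drug doses (not always all listed) in √10 steps, and values are medians of duplicate plates imaged at 4×.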

[2] = compound: CC(=O)Nc1cccc(-n2c(=O)n(C3CC3)c(=O)c3c(Nc4ccc(I)cc4F)n(C)c(=O)c(C)c32)c1 [Trametinib] + C[C@@H](Oc1cc(-c2cnn(C3CCNCC3)c2)cnc1N)c1c(Cl)ccc(F)c1Cl [Crizotinib] (partner 1 µM)
Summary of the method: as §1

[3] = compound: CN1C=C(C2=CC=CC=C21)/C=C\3/C4=C(C=CC=N4)NC3=O + Nc1nc2[nH]cc(CCc3ccc(C(=O)N[C@@H](CCC(=O)O)C(=O)O)cc3)c2c(=O)[nH]1 [Pemetrexed] (partner 0.2 µM)
Summary of the method: as §1

[4] = compound: CN1C=C(C2=CC=CC=C21)/C=C\3/C4=C(C=CC=N4)NC3=O + NC(=O)Nc1cc(-c2cccc(F)c2)sc1C(=O)N[C@H]1CCCNC1 [AZD7762] (partner 0.2 µM)
Summary of the method: as §1

| Cell Line | relative viability ([1]; first compound 0.02 µM) | relative viability ([1]; first compound 0.06325 µM) | relative viability ([1]; first compound 0.2 µM) | relative viability ([1]; first compound 0.6325 µM) | relative viability ([1]; first compound 2 µM) | relative viability ([2]; first compound 0.0025 µM) | relative viability ([2]; first compound 0.007906 µM) | relative viability ([2]; first compound 0.025 µM) | relative viability ([2]; first compound 0.07906 µM) | relative viability ([2]; first compound 0.25 µM) | relative viability ([3]; first compound 0.02 µM) | relative viability ([3]; first compound 0.06325 µM) | relative viability ([3]; first compound 0.2 µM) | relative viability ([3]; first compound 0.6325 µM) | relative viability ([3]; first compound 2 µM) | relative viability ([4]; first compound 0.02 µM) | relative viability ([4]; first compound 0.06325 µM) | relative viability ([4]; first compound 0.2 µM) | relative viability ([4]; first compound 0.6325 µM) | relative viability ([4]; first compound 2 µM) |
| --- | --- | --- | --- | --- | --- | --- | --- | --- | --- | --- | --- | --- | --- | --- | --- | --- | --- | --- | --- | --- |
| HCC-44 | 0.943 | 1.03 | 0.89 | 0.726 | 0.772 | 0.853 | 0.916 | 0.763 | 0.728 | 0.526 | 0.58 | 0.613 | 0.664 | 0.648 | 0.636 | 0.937 | 1.02 | 0.94 | 1 | 0.956 |
| HCC-78 | 0.692 | 0.71 | 0.589 | 0.778 | 0.758 | 0.318 | 0.275 | 0.252 | 0.285 | 0.215 | 0.907 | 0.945 | 0.951 | 0.903 | 0.913 | 0.502 | 0.546 | 0.6 | 0.608 | 0.348 |
| HCC-366 | 0.945 | 0.994 | 1.13 | 1.07 | 0.986 | 0.446 | 0.425 | 0.34 | 0.246 | 0.0629 | 0.148 | 0.142 | 0.196 | 0.155 | 0.133 | 0.29 | 0.278 | 0.0805 | 0.178 | 0.24 |
| HCC-827 | 0.956 | 1.02 | – | 1.03 | 0.986 | 0.931 | 0.946 | 0.889 | 0.859 | 0.532 | 0.227 | 0.28 | – | 0.247 | 0.258 | 0.202 | 0.187 | – | 0.246 | 0.215 |
| HOP-62 | 1.25 | 1.14 | 0.703 | 0.99 | 1 | 0.925 | 0.932 | 0.581 | 0.502 | 0.209 | 0.285 | 0.299 | – | 0.357 | 0.366 | 0.569 | 0.559 | – | 0.919 | 0.774 |
| LC-2-ad | 0.412 | 0.304 | 0.439 | 0.412 | 0.389 | 0.47 | 0.463 | 0.422 | – | 0.294 | 0.287 | 0.255 | 0.26 | 0.271 | 0.285 | 0.836 | 0.835 | 0.754 | 0.821 | 0.861 |
| LCLC-97TM1 | 0.322 | – | – | 0.566 | 0.36 | 0.482 | 0.573 | 0.271 | 0.281 | 0.147 | – | 0.177 | 0.18 | 0.21 | 0.186 | 0.177 | 0.188 | 0.0774 | 0.168 | 0.284 |
| LK-2 | – | 0.683 | 0.638 | 0.726 | 1.04 | 0.283 | 0.217 | 0.226 | 0.299 | 0.241 | 0.192 | 0.241 | 0.199 | 0.309 | 0.297 | 0.173 | 0.278 | 0.162 | 0.32 | 0.271 |
| LOU-NH91 | 0.555 | 0.603 | 0.596 | 0.602 | 0.678 | 0.722 | 0.667 | 0.714 | 0.636 | 0.501 | 0.368 | 0.387 | 0.365 | 0.348 | 0.372 | 0.684 | 0.641 | 0.402 | 0.664 | 0.764 |
